Assay results: US10501411B2, “Substituted benzamides” (Hoffmann-La Roche Inc., priority 2009, dated 2019)

Assays:
[1] = target: mouse TAAR1 (Mus musculus (Mouse), UniProt Q923Y8); experiment: Radioligand binding assay on mouse TAAR1; conditions: for Ki: mouse TAAR1, HEK-293 membranes, first value of the mouse/rat pair
Procedure: (§1) Construction of TAAR Expression Plasmids and Stably Transfected Cell Lines
(§2) For the construction of expression plasmids the coding sequences of human, rat and mouse TAAR 1 were amplified from genomic DNA essentially as described by Lindemann et al.. The Expand High Fidelity PCR System (Roche Diagnostics) was used with 1.5 mM Mg^2+ and purified PCR products were cloned into pCR2.1-TOPO cloning vector (Invitrogen) following the instructions of the manufacturer. PCR products were subcloned into the pIRESneo2 vector (BD Clontech, Palo Alto, Calif.), and expression vectors were sequence verified before introduction in cell lines.
(§3) HEK293 cells (ATCC #CRL-1573) were cultured essentially as described by Lindemann et al. (2005). For the generation of stably transfected cell lines HEK293 cells were transfected with the pIRESneo2 expression plasmids containing the TAAR coding sequences (described above) with Lipofectamine 2000 (Invitrogen) according to the instructions of the manufacturer, and 24 hrs post transfection the culture medium was supplemented with 1 mg/ml G418 (Sigma, Buchs, Switzerland). After a culture period of about 10 d clones were isolated, expanded and tested for responsiveness to trace amines (all compounds purchased from Sigma) with the cAMP Biotrak Enzyme immunoassay (EIA) System (Amersham) following the non-acetylation EIA procedure provided by the manufacturer.
Radioligand Binding Assay on Mouse TAAR1
(§4) Membrane Preparation and Radioligand Binding.
HEK-293 cells stably expressing mouse TAAR1 were maintained at 37° C. and 5% CO2 in DMEM high glucose medium, containing fetal calf serum (10%, heat inactivated for 30 min at 56° C.), penicillin/streptomycin (1%), and 375 μg/ml geneticin (Gibco). […] With each new membrane batch the dissociation constant (Kd) was determined via a saturation curve. […] After addition of 45 μl of Microscint 40 (PerkinElmer) the Unifilter-96 plate was sealed and after 1 hr the ratioactivity counted using a TopCount Microplate Scintillation Counter (Packard Instrument Company).

[2] = target: rat TAAR1 (Rattus norvegicus (Rat), UniProt Q923Y9); experiment: Radioligand binding assay on rat TAAR1; conditions: for Ki: rat TAAR1, HEK-293 membranes, second value of the mouse/rat pair
Procedure: as §1, §2, §3
Radioligand Binding Assay on Rat TAAR1
as §4
HEK-293 cells stably expressing rat TAAR1 were maintained at 37° C. and 5% CO2 in DMEM high glucose medium, containing fetal calf serum (10%, heat inactivated for 30 min at 56° C.), penicillin/streptomycin (1%), and 375 μg/ml geneticin (Gibco). Cells were released from culture flasks using trypsin/EDTA, harvested, washed twice with ice-cold PBS (without Ca^2+ and Mg^2+), pelleted at 1,000 rpm for 5 min at 4° C., frozen and stored at −80° C. Frozen pellets were suspended in 20 ml HEPES-NaOH (20 mM, pH 7.4) containing 10 mM EDTA and homogenized with a Polytron (PT 6000, Kinematica) at 14,000 rpm for 20 s. The homogenate was centrifuged at 48,000×g for 30 min at 4° C. Subsequently, the supernatant was removed and discarded, and the pellet resuspended in 20 ml HEPES-NaOH (20 mM, pH 7.4) containing 0.1 mM EDTA using the Polytron (20 s at 14,000 rpm). This procedure was repeated and the final pellet resuspended in HEPES-NaOH containing 0.1 mM EDTA and homogenized using the Polytron. […] With each new membrane batch the dissociation constant (Kd) was determined via a saturation curve. […] After addition of 45 μl of Microscint 40 (PerkinElmer) the Unifilter-96 plate was sealed and after 1 hr the ratioactivity counted using a TopCount Microplate Scintillation Counter (Packard Instrument Company).

Sequence of rat TAAR1 (Q923Y9 whole entry): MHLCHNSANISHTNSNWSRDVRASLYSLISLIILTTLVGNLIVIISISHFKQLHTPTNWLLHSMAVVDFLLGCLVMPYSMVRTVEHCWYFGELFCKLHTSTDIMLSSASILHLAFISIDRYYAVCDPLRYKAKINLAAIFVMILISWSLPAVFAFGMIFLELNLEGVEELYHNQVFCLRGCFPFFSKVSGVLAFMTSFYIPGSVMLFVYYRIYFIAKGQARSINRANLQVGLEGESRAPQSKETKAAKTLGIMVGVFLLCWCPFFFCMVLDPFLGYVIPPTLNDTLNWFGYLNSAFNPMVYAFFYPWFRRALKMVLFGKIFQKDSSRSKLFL
Sequence of mouse TAAR1 (Q923Y8 whole entry): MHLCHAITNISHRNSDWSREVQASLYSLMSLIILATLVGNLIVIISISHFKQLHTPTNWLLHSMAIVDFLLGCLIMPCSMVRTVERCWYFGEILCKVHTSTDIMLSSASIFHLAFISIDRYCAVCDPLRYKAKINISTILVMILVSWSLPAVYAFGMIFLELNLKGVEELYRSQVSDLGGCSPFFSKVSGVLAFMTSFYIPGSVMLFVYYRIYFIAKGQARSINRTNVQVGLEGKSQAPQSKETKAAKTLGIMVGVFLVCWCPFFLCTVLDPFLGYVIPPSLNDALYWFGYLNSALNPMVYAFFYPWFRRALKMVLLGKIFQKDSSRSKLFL

| Ki [2] | Kd ([1]; mouse TAAR1 membranes, saturation curve, read-out: dissociation constant (Kd) of the radioligand) | Kd ([2]; rat TAAR1 membranes, saturation curve, read-out: dissociation constant (Kd) of the radioligand) | SMILES | Ki [1] |
| --- | --- | --- | --- | --- |
| 0.0219 µM |  |  | CC(CC(F)(F)F)OC(=O)Nc1ccc(C2CCNC2)cc1 (racemic) [Example 131, (RS)-(4-Pyrrolidin-3-yl-phenyl)-carbamic acid (RS)-3,3,3-trifluoro-1-methyl-propyl ester] | 0.0208 µM |
|  | ~0.7 nM | ~2.3 nM | CCN(C[C@H]1COC(N)=N1)c1ccccc1 [^3[H]—(S)-4-[(ethyl-phenyl-amino)-methyl]-4,5-dihydro-oxazol-2-ylamine, reference compound] |  |
| 0.522 µM |  |  | CC1(c2ccc(NC(=O)c3ccc(Cl)cc3)cc2)CCN(Cc2ccccc2)C1 (racemic) [Example 40, (RS)—N-[4-(1-Benzyl-3-methyl-pyrrolidin-3-yl)-phenyl]-4-chloro-benzamide] |  |

| SMILES | Ki [2] | Kd ([1]; mouse TAAR1 membranes, saturation curve, read-out: dissociation constant (Kd) of the radioligand) | Kd ([2]; rat TAAR1 membranes, saturation curve, read-out: dissociation constant (Kd) of the radioligand) | Ki [1] |
| --- | --- | --- | --- | --- |
| O=C(Nc1cccc(OC2CCNC2)c1)c1ccc(Cl)cc1 (racemic) [Example 70, (RS)-4-Chloro-N-[3-(pyrrolidin-3-yloxy)-phenyl]-benzamide] | 0.0935 µM |  |  | 0.0097 µM |
